Data from patent publication US11116760B2 (Gilead Sciences, Inc., priority 2018, dated 2021).

molecular target: α4β7 integrin (Homo sapiens (Human), UniProt P13612+P26010); assay: α4β7 Integrin Cell Capture Assay; format: cell-based; conditions: RPMI8866 cells captured on MadCAM-1 extracellular domain-coated plate
Sequence (P13612 34-1032): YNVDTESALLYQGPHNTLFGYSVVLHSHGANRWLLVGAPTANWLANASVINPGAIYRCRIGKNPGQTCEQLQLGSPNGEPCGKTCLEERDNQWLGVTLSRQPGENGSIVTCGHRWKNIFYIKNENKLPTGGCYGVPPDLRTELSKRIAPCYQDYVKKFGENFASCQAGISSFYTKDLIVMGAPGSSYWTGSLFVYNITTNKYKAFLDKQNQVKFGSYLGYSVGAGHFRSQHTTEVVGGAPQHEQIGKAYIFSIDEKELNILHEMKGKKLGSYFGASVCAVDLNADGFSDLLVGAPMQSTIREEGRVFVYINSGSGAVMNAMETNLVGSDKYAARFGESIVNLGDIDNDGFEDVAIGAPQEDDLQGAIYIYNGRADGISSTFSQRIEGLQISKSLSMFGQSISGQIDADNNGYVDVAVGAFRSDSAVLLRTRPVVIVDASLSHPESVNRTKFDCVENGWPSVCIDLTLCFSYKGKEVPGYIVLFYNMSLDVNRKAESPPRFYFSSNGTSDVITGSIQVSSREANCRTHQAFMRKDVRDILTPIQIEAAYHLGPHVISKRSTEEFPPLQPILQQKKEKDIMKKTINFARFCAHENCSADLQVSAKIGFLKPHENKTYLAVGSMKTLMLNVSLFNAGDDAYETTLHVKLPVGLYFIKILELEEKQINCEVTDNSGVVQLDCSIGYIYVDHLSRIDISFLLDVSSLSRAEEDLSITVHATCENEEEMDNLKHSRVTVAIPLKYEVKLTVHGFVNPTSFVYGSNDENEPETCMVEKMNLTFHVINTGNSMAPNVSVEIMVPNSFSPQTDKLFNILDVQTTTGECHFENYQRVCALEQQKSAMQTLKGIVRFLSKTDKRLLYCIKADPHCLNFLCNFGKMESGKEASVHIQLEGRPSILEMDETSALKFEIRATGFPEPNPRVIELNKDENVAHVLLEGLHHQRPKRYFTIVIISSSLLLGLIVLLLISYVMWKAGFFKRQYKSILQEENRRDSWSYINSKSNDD
Sequence (P26010 20-798): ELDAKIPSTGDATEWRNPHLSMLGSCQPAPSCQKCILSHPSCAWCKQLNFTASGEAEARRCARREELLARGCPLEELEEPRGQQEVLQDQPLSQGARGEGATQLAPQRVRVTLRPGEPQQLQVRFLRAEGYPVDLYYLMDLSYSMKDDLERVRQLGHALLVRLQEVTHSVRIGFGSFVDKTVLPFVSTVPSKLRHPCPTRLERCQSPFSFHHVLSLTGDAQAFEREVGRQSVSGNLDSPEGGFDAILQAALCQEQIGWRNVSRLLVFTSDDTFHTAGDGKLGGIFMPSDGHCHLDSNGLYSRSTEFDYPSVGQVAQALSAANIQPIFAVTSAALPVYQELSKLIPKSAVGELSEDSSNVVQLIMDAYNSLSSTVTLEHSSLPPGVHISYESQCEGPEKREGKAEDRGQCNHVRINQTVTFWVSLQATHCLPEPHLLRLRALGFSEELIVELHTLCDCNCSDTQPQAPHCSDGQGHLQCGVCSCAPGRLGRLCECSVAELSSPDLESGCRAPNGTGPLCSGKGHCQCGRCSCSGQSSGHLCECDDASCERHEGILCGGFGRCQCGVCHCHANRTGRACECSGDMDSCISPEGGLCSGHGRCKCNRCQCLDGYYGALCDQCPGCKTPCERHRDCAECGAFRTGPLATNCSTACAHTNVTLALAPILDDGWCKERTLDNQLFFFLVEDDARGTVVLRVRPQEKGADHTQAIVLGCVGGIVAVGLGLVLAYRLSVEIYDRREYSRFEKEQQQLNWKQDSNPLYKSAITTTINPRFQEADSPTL

| SMILES | EC50 [nM] |
| --- | --- |
| Cc1cc(C(F)(F)F)c(-c2ccc(C[C@H](NC(=O)c3c(F)cc(N4CCN(C)C[C@@H]4C(F)(F)F)cc3F)C(=O)O)c3cccnc23)c(=O)n1C (atropisomer, axis not shown) [Example 486] | 1.31 |
| Cc1nc2c(s1)c(=O)n(-c1ccc(C[C@H](NC(=O)c3c(C)cc(N4CCOC[C@@H]4C(F)(F)F)cc3F)C(=O)O)c3cccnc13)c(=O)n2C [Example 410] | 0.054 |
| Cc1cc(N2CCOC[C@@H]2C(F)(F)F)cc(F)c1C(=O)N[C@@H](Cc1ccc(-n2c(=O)c3ccncc3n(C)c2=O)c2ncc(F)cc12)C(=O)O [Example 426] | 0.096 |
| Cc1cc(C(F)(F)F)c(-c2ccc(C[C@H](NC(=O)c3c(F)cc(N4CCC[C@@H]4C(F)(F)F)cc3F)C(=O)O)c3cccnc23)c(=O)n1C (atropisomer, axis not shown) [Example 485] | 0.233 |
| Cc1cc(N2CC(F)(F)C2)c(-c2ccc(C[C@H](NC(=O)c3c(F)cc(N4CCOC[C@@H]4C(F)(F)F)cc3F)C(=O)O)c3cccnc23)c(=O)n1C [Example 476] | 0.337 |
| Cc1cc(N2CCOC[C@@H]2C(F)(F)F)cc(F)c1C(=O)N[C@@H](Cc1ccc(-n2c(=O)c3ccncc3n(C)c2=O)c2ncccc12)C(=O)O (atropisomer, axis not shown) [Example 408, (S)-2-(2-fluoro-6-methyl-4-((R)-3-(trifluoromethyl)morpholino)benzamido)-3-(8-(1-methyl-2,4-dioxo-1,4-dihydropyrido[3,4-d]pyrimidin-3(2H)-yl)quinolin-5-yl)propanoic acid] | 0.049 |
| Cc1cc(C(F)(F)F)c(-c2ccc(C[C@H](NC(=O)c3c(F)cc(N4C[C@H]5C[C@H]5[C@@H]4C(F)(F)F)cc3F)C(=O)O)c3cccnc23)c(=O)n1C [Example 483] | 0.544 |

same assay, conditions: Table 1; capture of α4β7 expressing RPM18866 cells on MadCAM-1 extracellular domain-coated plate

| SMILES | EC50 [nM] |
| --- | --- |
| CC[C@@H](Nc1cc(F)c(C(=O)N[C@@H](Cc2ccc(-c3c(C(F)(F)F)cc(C)n(C)c3=O)c3ncccc23)C(=O)O)c(F)c1)C(F)(F)F [Example 91, (S)-2-(2,6-difluoro-4-(((R)-1,1,1-trifluorobutan-2-yl)amino)benzamido)-3-(8-(1,6-dimethyl-2-oxo-4-(trifluoromethyl)-1,2-dihydropyridin-3-yl)quinolin-5-yl)propanoic acid] | 0.3 |
| CC[C@@H](Nc1cc(F)c(C(=O)N[C@@H](Cc2ccc(-c3c(OC)c4ccccc4n(C)c3=O)c3ncccc23)C(=O)O)c(F)c1)C(F)(F)F [Example 122, (S)-2-(2,6-difluoro-4-(((R)-1,1,1-trifluorobutan-2-yl)amino)benzamido)-3-(4-methoxy-1-methyl-2-oxo-1,2-dihydro-[3,8′-biquinolin]-5′-yl)propanoic acid] | 0.2 |
| CC[C@@H](N1CCCc2c1cc(F)c(C(=O)N[C@@H](Cc1ccc(-c3c(C(F)(F)F)cc(C)n(C)c3=O)c3ncccc13)C(=O)O)c2F)C(F)(F)F [Example 146, (S)-2-(5,7-difluoro-1-((R)-1,1,1-trifluorobutan-2-yl)-1,2,3,4-tetrahydroquinoline-6-carboxamido)-3-(8-(1,6-dimethyl-2-oxo-4-(trifluoromethyl)-1,2-dihydropyridin-3-yl)quinolin-5-yl)propanoic acid] | 0.6 |
| CCCNc1cc(F)c(C(=O)N[C@@H](Cc2ccc(-c3c(C(F)(F)F)cc(C)n(C)c3=O)c3ncccc23)C(=O)O)c(F)c1 [Example 133, (S)-2-(2,6-difluoro-4-(propylamino)benzamido)-3-(8-(1,6-dimethyl-2-oxo-4-(trifluoromethyl)-1,2-dihydropyridin-3-yl)quinolin-5-yl)propanoic acid] | 3.2 |
| Cc1cc(C(F)(F)F)c(-c2ccc(C[C@H](NC(=O)c3c(F)cc(N4CCOC[C@@H]4CC(F)(F)F)cc3F)C(=O)O)c3cccnc23)c(=O)n1C [Example 131, (S)-2-(2,6-difluoro-4-((S)-3-(2,2,2-trifluoroethyl)morpholino)benzamido)-3-(8-(1,6-dimethyl-2-oxo-4-(trifluoromethyl)-1,2-dihydropyridin-3-yl)quinolin-5-yl)propanoic acid] | 0.8 |
| CC[C@@H](Nc1cc(F)c(C(=O)N[C@@H](Cc2ccc(-c3c(C(F)(F)F)cc(C)n(C)c3=O)c3ncccc23)C(=O)O)c(F)c1)C(F)(F)F (single isomer, unassigned) [Example 147] | 1.9 |
| O=C(N[C@@H](Cc1ccc(-c2ncc3ccccc3c2C(F)(F)F)c2ncc(F)cc12)C(=O)O)c1c(Cl)cccc1Cl [Example 35, (S)-2-(2,6-dichlorobenzamido)-3-(3-fluoro-8-(4-(trifluoromethyl)isoquinolin-3-yl)quinolin-5-yl)propanoic acid] | 6.2 |
| N#Cc1ccc(-c2ccc(C[C@H](NC(=O)c3c(Cl)cc(F)cc3Cl)C(=O)O)c3cccnc23)c(Cl)c1 [Example 22, (S)-3-(8-(2-chloro-4-cyanophenyl)quinolin-5-yl)-2-(2,6-dichloro-4-fluorobenzamido)propanoic acid] | 48.5 |
| O=C(N[C@@H](Cc1ccc(-c2cccc3c2OCCC3)c2ncccc12)C(=O)O)c1c(F)cc(NS(=O)(=O)c2ccc(-c3ccnc(F)c3)cc2)cc1F [Example 62, (S)-3-(8-(chroman-8-yl)quinolin-5-yl)-2-(2,6-difluoro-4-((4-(2-fluoropyridin-4-yl)phenyl)sulfonamido)benzamido)propanoic acid] | 1.8 |
| N#Cc1ccc(-c2ccc(C[C@H](NC(=O)c3c(F)cc(NS(=O)(=O)c4ccccc4)cc3F)C(=O)O)c3cccnc23)c(Cl)c1 [Example 46, (S)-3-(8-(2-chloro-4-cyanophenyl)quinolin-5-yl)-2-(2,6-difluoro-4-(phenylsulfonamido)benzamido)propanoic acid] | 20 |
| CC[C@@H](Nc1cc(F)c(C(=O)N[C@@H](Cc2ccc(-c3ccc(C#N)cc3Cl)c3ncccc23)C(=O)O)c(F)c1)C(F)(F)F [Example 74, (S)-3-(8-(2-chloro-4-cyanophenyl)quinolin-5-yl)-2-(2,6-difluoro-4-(((R)-1,1,1-trifluorobutan-2-yl)amino)benzamido)propanoic acid] | 13.6 |
| CC[C@@H](Nc1cc(F)c(C(=O)N[C@@H](Cc2ccc(-c3c(C(F)(F)F)c4ccccc4n(C)c3=O)c3ncccc23)C(=O)O)c(F)c1)C(F)(F)F [Example 123, (S)-2-(2,6-difluoro-4-(((R)-1,1,1-trifluorobutan-2-yl)amino)benzamido)-3-(1-methyl-2-oxo-4-(trifluoromethyl)-1,2-dihydro-[3,8′-biquinolin]-5′-yl)propanoic acid] | 0.9 |
| O=C(N[C@@H](Cc1ccc(-c2ccc(C(F)(F)F)cn2)c2ncccc12)C(=O)O)c1c(F)cc(NS(=O)(=O)c2ccc(-c3ccnc(F)c3)cc2)cc1F [Example 57, (S)-2-(2,6-difluoro-4-((4-(2-fluoropyridin-4-yl)phenyl)sulfonamido)benzamido)-3-(8-(5-(trifluoromethyl)pyridin-2-yl)quinolin-5-yl)propanoic acid] | 30 |

same assay, conditions: Table 2; capture of α4β7 expressing RPM18866 cells on MadCAM-1 extracellular domain-coated plate

| SMILES | EC50 [nM] |
| --- | --- |
| COc1cnn(C)c(=O)c1-c1ccc(C[C@H](NC(=O)c2c(F)cc(N[C@H](C)C(F)(F)F)cc2F)C(=O)O)c2cccnc12 [Example 207] | 1.7 |
| CC[C@@H](Nc1cc(F)c(C(=O)N[C@@H](Cc2ccc(-c3ncc(C)cc3Cl)c3ncccc23)C(=O)O)c(F)c1)C(F)(F)F [Example 327] | 19.3 |
| Cc1cc(C(F)(F)F)c(-c2ccc(C[C@H](NC(=O)c3c(F)cc(N4CCCC[C@@H]4C(F)(F)F)cc3F)C(=O)O)c3cccnc23)c(=O)n1C (atropisomer, axis not shown) [Example 230] | 2.2 |
| COc1cc(C)n(C)c(=O)c1-c1ccc(C[C@H](NC(=O)c2c(F)cc(N3CCCC[C@@H]3C(F)(F)F)cc2F)C(=O)O)c2cccnc12 [Example 190] | 1.2 |
| N#Cc1ccc(-c2ccc(C[C@H](NC(=O)c3c(F)cc(N[C@H](c4ccc(F)cc4)C(F)(F)F)cc3F)C(=O)O)c3cccnc23)c(Cl)c1 [Example 331] | 22.9 |
| CCOCc1cc(OC)c(-c2ccc(C[C@H](NC(=O)c3c(F)cc4[nH]c(Cc5ccccc5)cc4c3F)C(=O)O)c3cccnc23)c(OC)c1 [Example 335] | 25.1 |
| CC[C@@H](Nc1cc(F)c(C(=O)N[C@@H](Cc2ccc(-c3ncc4ccccc4c3C(F)(F)F)c3ncccc23)C(=O)O)c(F)c1)C(F)(F)F [Example 276] | 4.9 |
| N#Cc1ccc(-c2ccc(C[C@H](NC(=O)c3c(Cl)cc4nc(C5CC5)[nH]c4c3Cl)C(=O)O)c3cccnc23)c(Cl)c1 [Example 179] | 37.7 |
| CC[C@@H](Nc1cc(F)c(C(=O)N[C@@H](Cc2ccc(-c3nccc(C)c3Cl)c3ncccc23)C(=O)O)c(F)c1)C(F)(F)F [Example 325] | 18.8 |
| Cc1c(-c2ccc(C[C@H](NC(=O)c3c(F)cc(N4CCS(=O)(=O)[C@@H](C)C4)cc3F)C(=O)O)c3cccnc23)c(=O)n(C)c(=O)n1C [Example 226] | 1.1 |
| CC[C@@H](Nc1cc(F)c(C(=O)N[C@@H](Cc2ccc(-c3nc(C)ccc3Cl)c3ncccc23)C(=O)O)c(F)c1)C(F)(F)F [Example 321] | 15.8 |
| Cc1nc(-c2ccc(C[C@H](NC(=O)c3c(F)cc(N4CCOC[C@H]4C(F)(F)F)cc3F)C(=O)O)c3cccnc23)c(=O)n(C)c1C [Example 255] | 3.4 |
| COc1ccc(C)nc1-c1ccc(C[C@H](NC(=O)c2c(F)cc(N3CCOC[C@H]3C(F)(F)F)cc2F)C(=O)O)c2cccnc12 [Example 291] | 6.9 |
| Cc1cc(C(F)(F)F)c(-c2ccc(C[C@H](NC(=O)c3c(F)cc(N4CC[C@@H]4C(F)(F)F)cc3F)C(=O)O)c3cccnc23)c(=O)n1C [Example 244] | 2.9 |
| Cc1c(Cl)cc(-c2ccc(C[C@H](NC(=O)c3c(F)cc(N4CCOC[C@@H]4C(F)(F)F)cc3F)C(=O)O)c3cccnc23)c(=O)n1C [Example 161] | 0.3 |
| CC(=O)c1cc(F)c(C(=O)N[C@@H](Cc2ccc(-c3ccc(C#N)cc3Cl)c3ncccc23)C(=O)O)c(F)c1 [Example 241] | 80.1 |
| Cc1c(Cl)cn(C)c(=O)c1-c1ccc(C[C@H](NC(=O)c2c(F)cc(N3CCOC[C@@H]3C(F)(F)F)cc2F)C(=O)O)c2cccnc12 [Example 165] | 0.4 |
| Cc1ccnc(-c2ccc(C[C@H](NC(=O)c3c(F)cc(N4CCOC[C@@H]4C(F)(F)F)cc3F)C(=O)O)c3cccnc23)c1N(C)C [Example 212] | 1.9 |
